Data on two molecules can be found in US8841257B2, “Inhibitors of STAT3 and uses thereof” (Board of Regents, The University of Texas System, priority 2009, dated 2014).

The subject of experiment [1] is MDA-MB-231 and SUM149 cells. In words: Vasculogenic mimicry exhibited by breast cancer cells. In kind it is cell-based. Particulars: 5 μM in DMSO; 24 hours. On the procedure:
Cells were treated with 5 μM of the compounds from examples 1 and 8 formulated in DMSO or with DMSO alone as a control. To highlight the matrix-associated vascular channels that were formed, cells were stained with periodic acid-Schiff (PAS) reagent. Representative photographs were taken at 24 hours at —10 magnification. Each experiment was repeated 3 times.

Another experiment deals with T1, STAT1 (Homo sapiens, UniProt P42224).
T1 sequence (P42224 1-750): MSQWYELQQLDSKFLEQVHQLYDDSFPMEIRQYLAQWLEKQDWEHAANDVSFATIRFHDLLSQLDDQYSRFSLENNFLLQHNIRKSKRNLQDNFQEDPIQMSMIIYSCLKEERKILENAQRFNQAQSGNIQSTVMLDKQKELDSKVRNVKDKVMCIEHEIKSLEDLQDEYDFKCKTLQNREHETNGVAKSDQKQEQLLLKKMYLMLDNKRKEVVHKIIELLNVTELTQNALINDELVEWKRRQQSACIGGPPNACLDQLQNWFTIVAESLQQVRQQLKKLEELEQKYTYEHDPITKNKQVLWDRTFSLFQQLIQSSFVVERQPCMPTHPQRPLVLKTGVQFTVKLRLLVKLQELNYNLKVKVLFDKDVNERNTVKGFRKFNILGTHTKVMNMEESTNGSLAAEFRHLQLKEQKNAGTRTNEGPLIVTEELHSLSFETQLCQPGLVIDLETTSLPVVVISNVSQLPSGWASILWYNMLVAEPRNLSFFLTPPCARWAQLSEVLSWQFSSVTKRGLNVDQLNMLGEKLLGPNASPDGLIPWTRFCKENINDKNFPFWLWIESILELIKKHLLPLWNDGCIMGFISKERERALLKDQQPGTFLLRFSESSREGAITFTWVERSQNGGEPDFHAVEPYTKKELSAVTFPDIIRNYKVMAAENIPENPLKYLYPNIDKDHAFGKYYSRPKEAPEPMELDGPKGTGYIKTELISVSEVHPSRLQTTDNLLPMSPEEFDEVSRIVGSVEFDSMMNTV
In words: IFNγ-stimulated phosphoStat1 in BT20 cells. The format is cell-based. More on the design: endogenous in cells; host or cells: BT20 breast tumor cells. The conditions noted are these: 5 μM, 2 h, then IFNγ 25 ng/mL, 20 and 45 min. On the procedure:
The compounds are selective for STAT3 over STAT1 in BT20 breast tumor cells. BT20 cells prepared as above and were treated with 5 μM of the compound of Example 1 for two hours then were treated with 25 ng/mL of interferon γ (IFNγ). […] (FIG. 4, bottom panel).

The subject of experiment [2] is MDA-MB-468 breast cancer cells. In words: Inhibition of growth of MDA-MB-468 breast cancer cells (MTT). The format is cell-based, human. Particulars: 72 hr. On the procedure: MDA MB 468 cells were plated at 1500 cells/well DMEM with high glucose 10% FBS. Cells were plated into 96 well plates (1500 cells per well) in. After 24 h the media was changed and cells were treated with DMSO or increasing amounts of the compound of Example 1 in DMSO. All wells had equal concentrations of DMSO. At 72 hr viability was measured with the MTT assay. […] In the mixtures of compounds of Examples 16, 22, 1 and 8. the total concentration of the drug is as listed on the X-axis. However, the mixtures are equimolar amounts of both drugs. For example, 5 μM of the drug is actually 2.5 μM of the compound of Example 16 and 2.5 μM the compound of Example 22. The same is true for the mixture of compounds Example 1 and Example 8.

In the next experiment the test system is HUVEC cells. In words: Inhibition of tube formation in HUVEC cells. The format is cell-based. Particulars: overnight; 0.01-5.0 μM tested. On the procedure: Inhibition of tube formation in HUVEC cells. […] Briefly, 1×10^4 HUV endothelial cells were seeded on the surface of the polymerized EC matrix gel per well, treated with either DMSO or 0.01 μM, 0.1 μM, 0.2 μM, 0.5 μM, 1.0 μM, 2.0 μM, and 5.0 μM of the compound from Example 1 and the compound from Example 16. The cells were incubated overnight at 37° C. The next day the tubes were observed and the images were captured using a Nikon phase contrast inverted microscope.

Consider `C/C(=C\C(=O)N[C@H]1CCc2cccc3c2N(C1=O)[C@H](C(=O)N[C@H](C)CCC(N)=O)C3)c1ccc(C(F)(F)P(=O)(OCOC(=O)C(C)(C)C)OCOC(=O)C(C)(C)C)cc1` [Example 1, (2E)-3-[4-[[bis[(2,2-dimethyl-1-oxopropoxy)methoxy]phosphinyl]difluoromethyl]phenyl]-but-2-enoyl-Haic-(R)-4-aminopentamide], for which the vasculogenic mimicry result in experiment [1] is “Significant reduction”. For the same molecule, at STAT1, the “IFNγ-stimulated increase in phosphoStat1” value is listed as “did not inhibit”.

Turning to `CCCC[C@H](NC(=O)/C=C(\C)c1ccc(C(F)(F)P(=O)(OCOC(=O)C(C)(C)C)OCOC(=O)C(C)(C)C)cc1)C(=O)N1C[C@H]2CC2[C@H]1C(=O)N[C@@H](CCC(N)=O)[C@@H](C)OCc1ccccc1` (stereo partly drawn) [Example 16, (2E)-3-[4-[[bis[(2,2-dimethyl-1-oxopropoxy)methoxy]phosphinyl]difluoromethyl]phenyl]-but-2-enoyl-norleucinyl-(2S,3R,4S)-methanoprolinyl-(4S,5R)-4-amino-5-benzyloxyhexamide], the “potency in MTT viability assay relative to Example 1” value in experiment [2] is “somewhat more potent”. Further, in the experiment on HUVEC cells, the “concentration at which significant reduction in tube formation was observed” value was 2 µM.
